For one series, the target named is T1, dUTPase (Homo sapiens, UniProt P33316).
T1 sequence (P33316 94-252 limits assumed): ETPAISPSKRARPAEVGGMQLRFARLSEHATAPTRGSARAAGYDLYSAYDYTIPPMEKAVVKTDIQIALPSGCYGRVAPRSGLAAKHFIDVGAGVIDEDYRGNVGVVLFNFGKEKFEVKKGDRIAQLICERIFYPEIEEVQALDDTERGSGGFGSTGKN
The series can be described thus: dUTPase activity assay, % inhibition of dUTPase catalysis at 100 μM (Table 1). The note with it: fixed concentration of 100 μM. The series is classed as biochemical. The procedure: dUTPase Activity Assay Cells were harvested and protein isolated and quantified as per Western blotting. Twenty-five μg of total protein was normalized to a 20 μl reaction volume with PBS/protease inhibitor. Relative dUTPase activity was determined as previously described (9) and is expressed as fold-change compared to an identical transfection in the presence of 0.5 μg/ml dox.
These molecules were tested in our dUTPase activity assay at an initial 100 μM in vitro to determine their percentage inhibition of dUTPase catalysis relative to un-inhibited control. Table 1 illustrates the docking fitness scores of the top four active compounds and their ability to inhibit dUTPase activity.

The subject of the next series is advanced breast cancer. The note with it: cited from earlier work; for time to progression: capecitabine alone, or lapatinib combined with capecitabine.
For series [1], the system named is MCF-7 human breast cancer cell line. The series can be described thus: Growth inhibition by MTS assay in MCF-7 cells, alone and combined with FUdR. The note with it: MCF-7, MTS assay; for IC50: Homo sapiens, MCF7, read-out: concentration required to inhibit 50% cell growth; for combined drug effect with FUdR on growth inhibition: compound fixed at 62.5 μM with increasing concentrations of FUdR. The series is classed as cell-based. The procedure:
FIG. 9. Inhibitors of dUTPase induce growth arrest in the MCF-7 human breast cancer cell line. (A) MCF-7 cells were exposed to increasing concentrations of two novel dUTPase inhibitory lead compounds and growth inhibition was analyzed by MTS assay. […] (B) DU-203 at a fixed concentration of 62.5 μM was combined with increasing concentrations of FUdR and the combined drug effect analyzed by MTS assay and the degree of synergy determined using the methods of Chou and Talalay. […] BB-123 enhances the growth arrest of MCF-7 cells when combined with FUdR. (C) BB-123 at a fixed concentration of 62.5 μM was combined with increasing concentrations of FUdR and the combined drug effect analyzed as described previously.
Inhibitors of dUTPase induce growth arrest in the MCF-7 human breast cancer cell line. […] These growth inhibitory effects are consistent with the inhibition of dUTPase and the resultant accumulation of dUTP and uracil misincorporation during DNA replication. To test the specificity of these inhibitors, DU-203 and BB-123 were combined with the inhibitor of thymidylate synthase (TS), FUdR.
(In general: Formazan colour is commonly taken as a measure of viable cells.)

For series [2], the system named is MCF-7 pTet-off cells. Briefly: dUTP accumulation assay. The series is classed as cell-based, human. The note with it: 24 h; for reduction in dUTP pool expansion with dUTPase overexpression versus basal dUTPase: 10 μM 5-FU or 1 μM FUdR. The procedure:
FIG. 5. Elevated dUTPase Protects Breast Cancer Cells from 5-FU. (A) Western blot and analysis of dUTPase expression and corresponding dUTPase enzyme activity assay following 72 h transfection with pTre-Tight:DUT-N in the presence and absence of 0.5 μg/m1 dox, Histogram bars represent the mean ±SEM of corresponding Western lysates analyzed in duplicate. (B) Analysis of dUTP accumulation in pTre-Tight:DUT-N-transfected MCF-7 psTet-off cells with basal (+dox) and induced (−dox) dUTPase expression and treated with 10 μM 5-FU, 1 μM FUdR and taxol (paclitaxel) 5 nM for 24 h, % dUTP was calculated as described in ‘Materials and Methods’, Histogram bars represent the mean ±SEM of two independent treatments, †=dUTP not detected. (C) Growth inhibition measured by MTS assay in pTre-Tight:DUT-N-transfected MCF-7 pTet-off cells following treatment with increasing concentrations (in μM) of 5-FU for 72 h. Histogram bars represent the mean ±SEM of three independent treatments, *=p<0.05, **=p<0.01.
dUTP Accumulation Assay MCF-7 pTet-off cells were treated with specified concentrations of 5-FU, FUdR and taxol for indicated times, harvested, and 3×10^6 cells were analyzed for nucleotide pool content using the assay developed by Sherman and Fyfe (10) modified to detect levels of TTP and dUTP by pre-incubating extracts with recombinant dUTPase (9, 11). Radioactive incorporation, measured in the presence of dUTPase represented the TTP pool, while untreated extracts represented both the dUTP and TTP pools. dUTP accumulation was determined by subtracting the results of extracts treated with dUTPase from untreated extracts and presented as % accumulation in histogram format. Statistical significance was determined using a two-tailed unpaired Student's t-test (Graphpad, San Diego, Calif.).
Elevated dUTPase Protects Breast Cancer Cells from 5-FU. […] A tetracycline-repressible dUTPase expression construct and overexpressed dUTPase with an approximate 4-fold increase in expression and enzymatic activity in transfected tet-inducible MCF-7 pTet-off cells (FIG. 5A) was utilized. […]

For series [3], the system named is MCF-7 pTet-off cells. The series can be described thus: Growth inhibition assay in MCF-7 pTet-off cells. The note with it: Homo sapiens, MCF7; MCF-7 cells, 72 h. It is filed as cell-based. The procedure: Growth Inhibition Assay MCF-7 pTet-off cells were transfected in the presence or absence of 0.5 μg/ml of dox and growth inhibition was measured as previously (9) using CellTiter 96® AQueous One Solution (Promega, Madison, Wis.). Cells were exposed to increasing concentrations of 5-FU for 72 h. Absorbance was measured using a SpectraMax 190 microplate reader (Molecular Devices, Sunnyvale, Calif.) at 490 nm, with drug treated cells compared to untreated controls set at 100%. Statistical significance was determined using a two-tailed unpaired Student's t-test (Graphpad, San Diego, Calif.).
We subsequently investigated the effects of dUTPase overexpression on growth inhibition following exposure of MCF-7 pTet-off cells to increasing concentrations of 5-FU.

A further series has as its target T2, DPD (Homo sapiens, UniProt Q12882).
T2 construct: host or cells: liver
T2 sequence (Q12882 4-1025): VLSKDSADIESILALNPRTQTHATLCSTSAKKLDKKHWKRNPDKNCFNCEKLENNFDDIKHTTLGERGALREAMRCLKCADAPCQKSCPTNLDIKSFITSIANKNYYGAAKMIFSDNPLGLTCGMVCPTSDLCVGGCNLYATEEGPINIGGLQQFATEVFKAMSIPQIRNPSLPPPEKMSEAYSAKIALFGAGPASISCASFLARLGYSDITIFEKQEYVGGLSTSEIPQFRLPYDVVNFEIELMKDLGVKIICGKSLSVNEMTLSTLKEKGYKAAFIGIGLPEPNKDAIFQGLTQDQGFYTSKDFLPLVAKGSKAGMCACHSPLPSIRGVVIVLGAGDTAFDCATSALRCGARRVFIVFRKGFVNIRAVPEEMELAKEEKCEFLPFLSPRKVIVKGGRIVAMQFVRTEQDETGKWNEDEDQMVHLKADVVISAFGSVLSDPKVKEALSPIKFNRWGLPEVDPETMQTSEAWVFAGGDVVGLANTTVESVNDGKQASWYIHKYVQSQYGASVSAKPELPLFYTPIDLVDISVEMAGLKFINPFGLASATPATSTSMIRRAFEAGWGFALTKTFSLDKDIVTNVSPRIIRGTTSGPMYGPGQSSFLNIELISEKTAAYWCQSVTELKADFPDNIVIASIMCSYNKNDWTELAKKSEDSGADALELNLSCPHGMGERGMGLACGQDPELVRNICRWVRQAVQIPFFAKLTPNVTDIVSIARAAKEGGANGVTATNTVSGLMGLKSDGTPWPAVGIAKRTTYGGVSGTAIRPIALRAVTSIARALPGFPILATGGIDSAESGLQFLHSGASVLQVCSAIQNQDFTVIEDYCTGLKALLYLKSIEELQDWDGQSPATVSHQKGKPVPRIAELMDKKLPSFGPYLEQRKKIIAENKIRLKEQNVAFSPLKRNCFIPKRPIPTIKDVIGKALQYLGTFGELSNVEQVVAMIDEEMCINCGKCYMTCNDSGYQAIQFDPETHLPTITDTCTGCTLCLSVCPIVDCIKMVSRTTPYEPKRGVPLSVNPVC
The note with it: cited from earlier work.

A word on the inhibition: it is the drop in the measured response relative to a control, in per cent.

SMILES strings stand for the structures.

Turning to `N#Cc1c(N)nc(SCC(=O)c2ccc(F)cc2)c(C#N)c1-c1ccc(OCc2ccccc2)cc1` [Du 202], the “% dUTPase Inhibition” value at dUTPase is listed as “Inactive”. As to `CCCCCOC(=O)Nc1nc(=O)n([C@@H]2O[C@H](C)[C@@H](O)[C@H]2O)cc1F` [capecitabine], the time to progression in the series with advanced breast cancer was 19.7 weeks. With `CCc1ccc(N2CN(c3ccc(CC)cc3)CN(c3ccc(CC)cc3)C2)cc1` [BB123], the IC50 in series [1] was determined as 73.8 µM. For the same molecule, the “combined drug effect with FUdR on growth inhibition” value was “enhanced growth inhibition at all concentrations tested” in series [1] and “enhanced growth inhibition is observed at all concentrations tested” in series [1] (listed as BB-123). At dUTPase, `CC(=O)CSc1nc2c(c(=O)[nH]c(=O)n2C)n1CC(O)COc1ccccc1C` (centres unmarked) [BB37] yielded an inhibition at 100 µM of 34%. Take `CC(=O)O[C@H]1C(=O)[C@@]2(C)[C@H]([C@H](OC(=O)c3ccccc3)[C@]3(O)C[C@H](OC(=O)[C@H](O)[C@@H](NC(=O)c4ccccc4)c4ccccc4)C(C)=C1C3(C)C)[C@]1(OC(C)=O)CO[C@@H]1C[C@@H]2O` [paclitaxel]: the dUTP detection result in the series with MCF-7 pTet-off cells [2] (taxol 5 nM, basal or induced dUTPase expression) is “no detection of dUTP”. With `O=c1[nH]cc(F)c(=O)[nH]1` [Compound 5-FU, 5-fluorouracil], the “reduction in dUTP pool expansion with dUTPase overexpression versus basal dUTPase” value in the series on MCF-7 pTet-off cells [2] is recorded as 37%. In the series on MCF-7 pTet-off cells [3], this molecule came in with an IC50 above 10 µM. The “5-FU degraded by DPD in the liver” value on DPD is listed as above 80%.

For the molecule `Cc1cc(C)c(NC(=O)CSc2nc3ccc(NC(=O)CSc4nnc(COc5ccccc5)n4-c4ccccc4)cc3s2)c(C)c1` [Du 44], the inhibition at 100 µM against dUTPase was found to be 28.5%. Consider `O=c1[nH]c(=O)n([C@H]2C[C@H](O)[C@@H](CO)O2)cc1F` [FUdR, fluorodeoxyuridine], for which, in the series on MCF-7 pTet-off cells [2], the “reduction in dUTP pool expansion with dUTPase overexpression versus basal dUTPase” value is 38%.

Turning to `CCCc1ccc(OCC(=O)Nc2ccc(S(=O)(=O)Nc3onc(C)c3C)cc2)cc1` [Du 7], on dUTPase, 100 µM produced 55.7% inhibition. `COc1cc(/C=N/NC(=O)C(Cc2c[nH]c3ccccc23)NC(=O)OCc2ccccc2)cc([N+](=O)[O-])c1O` (centres unmarked) [Du 203]: in series [1], the IC50 came to 65.1 µM and the “combined drug effect with FUdR on growth inhibition” value was “enhanced growth inhibition is observed at all concentrations tested”. Take `CS(=O)(=O)CCNCc1ccc(-c2ccc3ncnc(Nc4ccc(OCc5cccc(F)c5)c(Cl)c4)c3c2)o1` [lapatinib]: the time to progression with advanced breast cancer was 36.9 weeks. In addition, the “improved response rate compared to capecitabine alone” value in the series on advanced breast cancer (combined with capecitabine, ErbB2 positive advanced breast cancer, previously failed multiple lines of therapy) was 12.2%.

The values above are taken from patent US20110212467A1, “INHIBITORS OF dUTPase” (UNIVERSITY OF SOUTHERN CALIFORNIA, priority 2008, published 2011).
